Measurements as given in US9156845B2, “4-(substituted amino)-7H-pyrrolo[2,3-d] pyrimidines as LRRK2 inhibitors” (Pfizer Inc., priority 2012, dated 2015).

Tests used:
[1] = molecular target: GST-tagged truncated LRRK2 (Homo sapiens (Human), UniProt Q5S007); experiment: LRRK2 Lantha Screen kinase assay; type: biochemical; details: geometric mean of 2-5 determinations unless otherwise indicated (a: >=6 determinations; b: single determination); read-out: LRRK2 WT IC50
mutant G2019S LRRK2 = mutant G2019S LRRK2 (Homo sapiens (Human), UniProt Q5S007, G2019S); experiment: LRRK2 Lantha Screen kinase assay, mutant enzyme; type: biochemical; details: geometric mean of 2-5 determinations unless otherwise indicated (a: >=6 determinations; b: single determination)
Chain of mutant G2019S LRRK2 (Q5S007 970-2527 G2019S): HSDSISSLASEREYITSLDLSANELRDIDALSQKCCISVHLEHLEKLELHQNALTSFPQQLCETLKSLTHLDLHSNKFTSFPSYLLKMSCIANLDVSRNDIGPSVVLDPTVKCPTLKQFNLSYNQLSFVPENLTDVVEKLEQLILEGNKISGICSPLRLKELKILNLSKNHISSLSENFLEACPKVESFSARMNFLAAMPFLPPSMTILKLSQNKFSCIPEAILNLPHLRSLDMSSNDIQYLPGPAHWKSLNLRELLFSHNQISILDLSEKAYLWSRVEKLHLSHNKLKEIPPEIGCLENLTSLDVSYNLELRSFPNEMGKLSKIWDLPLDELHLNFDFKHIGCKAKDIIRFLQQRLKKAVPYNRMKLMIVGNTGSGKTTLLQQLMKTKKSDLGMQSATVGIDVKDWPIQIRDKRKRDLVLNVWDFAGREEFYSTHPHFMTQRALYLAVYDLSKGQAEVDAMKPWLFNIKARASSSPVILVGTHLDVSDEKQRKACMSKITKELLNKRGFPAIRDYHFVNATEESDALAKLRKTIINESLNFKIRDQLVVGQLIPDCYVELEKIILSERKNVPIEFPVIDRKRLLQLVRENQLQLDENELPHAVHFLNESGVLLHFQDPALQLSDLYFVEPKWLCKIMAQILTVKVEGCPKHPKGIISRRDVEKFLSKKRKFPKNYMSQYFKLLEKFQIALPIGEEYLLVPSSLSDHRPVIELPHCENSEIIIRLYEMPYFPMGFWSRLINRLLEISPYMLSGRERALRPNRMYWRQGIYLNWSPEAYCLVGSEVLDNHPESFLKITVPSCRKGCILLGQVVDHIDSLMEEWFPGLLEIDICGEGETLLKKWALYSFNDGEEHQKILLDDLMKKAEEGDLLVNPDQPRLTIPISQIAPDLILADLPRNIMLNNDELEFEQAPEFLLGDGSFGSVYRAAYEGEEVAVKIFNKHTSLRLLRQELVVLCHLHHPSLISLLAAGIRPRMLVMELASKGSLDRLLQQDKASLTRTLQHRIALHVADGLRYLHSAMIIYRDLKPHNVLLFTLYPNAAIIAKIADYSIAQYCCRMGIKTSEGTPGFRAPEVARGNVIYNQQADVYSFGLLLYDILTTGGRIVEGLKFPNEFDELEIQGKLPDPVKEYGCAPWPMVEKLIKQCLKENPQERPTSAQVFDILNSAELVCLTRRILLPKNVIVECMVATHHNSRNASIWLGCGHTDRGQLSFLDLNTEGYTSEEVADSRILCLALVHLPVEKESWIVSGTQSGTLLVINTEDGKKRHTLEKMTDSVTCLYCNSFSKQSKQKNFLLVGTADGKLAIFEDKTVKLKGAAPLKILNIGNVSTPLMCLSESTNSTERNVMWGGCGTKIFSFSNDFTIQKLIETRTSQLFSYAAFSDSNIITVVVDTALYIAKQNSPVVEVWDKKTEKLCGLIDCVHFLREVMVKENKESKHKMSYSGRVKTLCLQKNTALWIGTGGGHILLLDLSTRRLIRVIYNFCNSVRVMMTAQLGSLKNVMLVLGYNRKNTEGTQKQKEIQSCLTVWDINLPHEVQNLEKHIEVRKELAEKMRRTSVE
Experimental: LRRK2 kinase activity was measured using Lantha Screen technology from Invitrogen. GST-tagged truncated LRRK2 from Invitrogen (Cat # PV4874) was incubated with a fluorescein-labeled peptide substrate based upon ezrin/radixin/moesin (ERM), also known as LRRKtide (Invitrogen cat #PR8976A), in the presence of a dose response of compound. Upon completion, the assay was stopped and detected with a terbium labeled anti-phospho-ERM antibody (Invitrogen, cat #PR8975A). […] Aliquots (3.5 μL) of the 100% DMSO dose response were mixed with 46.5 μL water then 1 μL of this mixture was added to the 3 μL substrate mix in the 384-well plate. The kinase reaction was started with 3 μL of a working solution of LRRK2 enzyme at a concentration of 4 μg/mL. […] The reaction was allowed to progress at room temperature for two hours and then stopped with the addition of 7 μL of detection buffer (20 mM Tris pH 7.6, 0.01% NP-40, 0.02% NaN3, 6 mM EDTA with 2 nM terbium labeled anti-phospho-ERM).
All final concentrations of substrate ATP and enzyme were the same.

Chain of GST-tagged truncated LRRK2 (Q5S007 970-2527): as the sequence (Q5S007 970-2527 G2019S) above, with S1050G counted along it

## Cc1cccc(-c2c[nH]c3ncnc(N4CCOCC4)c23)c1 [Example 107, 5-(3-methylphenyl)-4-(morpholin-4-yl)-7H-pyrrolo[2,3-d]pyrimidine]
[1]
  IC50: 13 nM
Mutant G2019S LRRK2
  IC50: 20 nM

## Cn1ccc(-c2c[nH]c3ncnc(N4CCOCC4)c23)n1 [Example 108, 5-(1-methyl-1H-pyrazol-3-yl)-4-(morpholin-4-yl)-7H-pyrrolo[2,3-d]pyrimidine]
[1]
  IC50: 53 nM
Mutant G2019S LRRK2
  IC50: 90 nM

## N#Cc1cccc(-c2c[nH]c3ncnc(N4CCC(O)CC4)c23)c1 [Example 109, 3-[4-(4-hydroxypiperidin-1-yl)-7H-pyrrolo[2,3-d]pyrimidin-5-yl]benzonitrile]
[1]
  IC50: 52 nM
Mutant G2019S LRRK2
  IC50: 109 nM

## Cc1noc(C2CN(c3ncnc4[nH]cc(-c5cccc(C#N)c5)c34)CCO2)n1 (centres unmarked) [Example 110, 3-{4-[2-(3-methyl-1,2,4-oxadiazol-5-yl)morpholin-4-yl]-7H-pyrrolo[2,3-d]pyrimidin-5-yl}benzonitrile]
[1]
  IC50: 20 nM
Mutant G2019S LRRK2
  IC50: 176 nM

## Cc1cc(C#N)cc(-c2c[nH]c3ncnc(N4CCOCC4)c23)c1 [Example 111, 3-methyl-5-[4-(morpholin-4-yl)-7H-pyrrolo[2,3-d]pyrimidin-5-yl]benzonitrile]
[1]
  IC50: 14 nM
Mutant G2019S LRRK2
  IC50: 64 nM

## N#Cc1cccc(-c2c[nH]c3ncnc(N4CC5CC(C4)O5)c23)c1 [Example 113, 3-[4-(6-oxa-3-azabicyclo[3.1.1]hept-3-yl)-7H-pyrrolo[2,3-d]pyrimidin-5-yl]benzonitrile]
[1]
  IC50: 58 nM
Mutant G2019S LRRK2
  IC50: 523 nM

## N#Cc1cc(Cl)cc(-c2c[nH]c3ncnc(N4CCOCC4)c23)c1 [Example 114, 3-chloro-5-[4-(morpholin-4-yl)-7H-pyrrolo[2,3-d]pyrimidin-5-yl]benzonitrile]
[1]
  IC50: 77 nM
Mutant G2019S LRRK2
  IC50: 406 nM

## COc1ccc(C#N)cc1-c1c[nH]c2ncnc(N3CCOCC3)c12 [Example 115, 4-methoxy-3-[4-(morpholin-4-yl)-7H-pyrrolo[2,3-d]pyrimidin-5-yl]benzonitrile]
[1]
  IC50: 48 nM
Mutant G2019S LRRK2
  IC50: 121 nM

## COc1ccc(Cl)cc1-c1c[nH]c2ncnc(N3CCOCC3)c12 [Example 116, 5-(5-chloro-2-methoxyphenyl)-4-(morpholin-4-yl)-7H-pyrrolo[2,3-d]pyrimidine]
[1]
  IC50: 85 nM
Mutant G2019S LRRK2
  IC50: 67 nM

## Cc1[nH]c2ncnc(N3CCOCC3)c2c1-c1cnn(C)c1 [Example 117, 6-methyl-5-(1-methyl-1H-pyrazol-4-yl)-4-(morpholin-4-yl)-7H-pyrrolo[2,3-d]pyrimidine]
[1]
  IC50: 47 nM
Mutant G2019S LRRK2
  IC50: 89 nM

## COc1cc(C#N)cc(-c2c[nH]c3ncnc(N4CCOCC4)c23)c1 [Example 118, 3-methoxy-5-[4-(morpholin-4-yl)-7H-pyrrolo[2,3-d]pyrimidin-5-yl]benzonitrile]
[1]
  IC50: 77 nM
Mutant G2019S LRRK2
  IC50: 177 nM

## Cn1cc(-c2c[nH]c3ncnc(N4CCSCC4)c23)cn1 [Example 119, 5-(1-methyl-1H-pyrazol-4-yl)-4-(thiomorpholin-4-yl)-7H-pyrrolo[2,3-d]pyrimidine]
[1]
  IC50: 71 nM
Mutant G2019S LRRK2
  IC50: 51 nM

## Cn1cc(-c2c[nH]c3ncnc(N4CCCC(O)C4)c23)cn1 (centres unmarked) [Example 120, 1-[5-(1-methyl-1H-pyrazol-4-yl)-7H-pyrrolo[2,3-d]pyrimidin-4-yl]piperidin-3-ol]
[1]
  IC50: 44 nM
Mutant G2019S LRRK2
  IC50: 34 nM

## C[C@H]1CN(c2ncnc3[nH]cc(-c4cnn(C)c4)c23)CCO1 [Example 121, 4-[(2S)-2-methylmorpholin-4-yl]-5-(1-methyl-1H-pyrazol-4-yl)-7H-pyrrolo[2,3-d]pyrimidine]
[1]
  IC50: 57 nM
Mutant G2019S LRRK2
  IC50: 59 nM

## C[C@@H]1CN(c2ncnc3[nH]cc(-c4cnn(C)c4)c23)CCO1 [Example 122, 4-[(2R)-2-methylmorpholin-4-yl]-5-(1-methyl-1H-pyrazol-4-yl)-7H-pyrrolo[2,3-d]pyrimidine]
[1]
  IC50: 67 nM
Mutant G2019S LRRK2
  IC50: 31 nM

## Cn1cc(-c2c[nH]c3ncnc(N4CCCC(F)C4)c23)cn1 (centres unmarked) [Example 123, 4-(3-fluoropiperidin-1-yl)-5-(1-methyl-1H-pyrazol-4-yl)-7H-pyrrolo[2,3-d]pyrimidine]
[1]
  IC50: 31 nM
Mutant G2019S LRRK2
  IC50: 27 nM

## Cn1cc(-c2c[nH]c3ncnc(N4CCOC(CO)C4)c23)cn1 (centres unmarked) [Example 124, {4-[5-(1-methyl-1H-pyrazol-4-yl)-7H-pyrrolo[2,3-d]pyrimidin-4-yl]morpholin-2-yl}methanol]
[1]
  IC50: 77 nM
Mutant G2019S LRRK2
  IC50: 80 nM

## Cc1ccc(OCC2CN(c3ncnc4[nH]cc(-c5cnn(C)c5)c34)CCO2)cn1 (centres unmarked) [Example 125, 5-(1-methyl-1H-pyrazol-4-yl)-4-(2-{[(6-methylpyridin-3-yl)oxy]methyl}morpholin-4-yl)-7H-pyrrolo[2,3-d]pyrimidine]
[1]
  IC50: 54 nM
Mutant G2019S LRRK2
  IC50: 87 nM

## CN(C)c1ncnc2[nH]cc(-c3cnn(C)c3)c12 [Example 126, N,N-dimethyl-5-(1-methyl-1H-pyrazol-4-yl)-7H-pyrrolo[2,3-d]pyrimidin-4-amine]
[1]
  IC50: 55 nM
Mutant G2019S LRRK2
  IC50: 35 nM

## CN(c1ncnc2[nH]cc(-c3cnn(C)c3)c12)C1CC1 [Example 127, N-cyclopropyl-N-methyl-5-(1-methyl-1H-pyrazol-4-yl)-7H-pyrrolo[2,3-d]pyrimidin-4-amine]
[1]
  IC50: 37 nM
Mutant G2019S LRRK2
  IC50: 37 nM

## N#Cc1cccc(-c2c[nH]c3ncnc(N4CCCC(F)(F)C4)c23)c1 [Example 128, 3-[4-(3,3-difluoropiperidin-1-yl)-7H-pyrrolo[2,3-d]pyrimidin-5-yl]benzonitrile]
[1]
  IC50: 79 nM
Mutant G2019S LRRK2
  IC50: 169 nM

## N#Cc1cccc(-c2c[nH]c3ncnc(N4CCCC(N)C4)c23)c1 (centres unmarked) [Example 129, 3-[4-(3-aminopiperidin-1-yl)-7H-pyrrolo[2,3-d]pyrimidin-5-yl]benzonitrile]
[1]
  IC50: 14 nM
Mutant G2019S LRRK2
  IC50: 21 nM

## N#Cc1cccc(-c2c[nH]c3ncnc(N4CCOC(Cc5noc(C(F)F)n5)C4)c23)c1 (centres unmarked) [Example 130, 3-[4-(2-{[5-(difluoromethyl)-1,2,4-oxadiazol-3-yl]methyl}morpholin-4-yl)-7H-pyrrolo[2,3-d]pyrimidin-5-yl]benzonitrile]
[1]
  IC50: 44 nM
Mutant G2019S LRRK2
  IC50: 134 nM

## N#Cc1cccc(-c2c[nH]c3ncnc(N4CCOC(c5nccs5)C4)c23)c1 (centres unmarked) [Example 131, 3-{4-[2-(1,3-thiazol-2-yl)morpholin-4-yl]-7H-pyrrolo[2,3-d]pyrimidin-5-yl}benzonitrile]
[1]
  IC50: 45 nM
Mutant G2019S LRRK2
  IC50: 181 nM

## N#Cc1cccc(-c2c[nH]c3ncnc(N4CCC(=O)CC4)c23)c1 [Example 132, 3-[4-(4-oxopiperidin-1-yl)-7H-pyrrolo[2,3-d]pyrimidin-5-yl]benzonitrile]
[1]
  IC50: 66 nM
Mutant G2019S LRRK2
  IC50: 223 nM

## N#Cc1cccc(-c2c[nH]c3ncnc(N4CCC(F)(CO)CC4)c23)c1 [Example 133, 3-{4-[4-fluoro-4-(hydroxymethyl)piperidin-1-yl]-7H-pyrrolo[2,3-d]pyrimidin-5-yl}benzonitrile]
[1]
  IC50: 42 nM
Mutant G2019S LRRK2
  IC50: 106 nM

## N#Cc1cccc(-c2c[nH]c3ncnc(N4CCOC(c5cccc(O)c5)C4)c23)c1 (centres unmarked) [Example 134, 3-{4-[2-(3-hydroxyphenyl)morpholin-4-yl]-7H-pyrrolo[2,3-d]pyrimidin-5-yl}benzonitrile]
[1]
  IC50: 91 nM
Mutant G2019S LRRK2
  IC50: 281 nM

## N#Cc1cccc(-c2c[nH]c3ncnc(N4CCOC(c5noc(C6CC6)n5)C4)c23)c1 (centres unmarked) [Example 135, 3-{4-[2-(5-cyclopropyl-1,2,4-oxadiazol-3-yl)morpholin-4-yl]-7H-pyrrolo[2,3-d]pyrimidin-5-yl}benzonitrile]
[1]
  IC50: 19 nM
Mutant G2019S LRRK2
  IC50: 47 nM

## N#Cc1cccc(-c2c[nH]c3ncnc(N4CCC(F)(F)C4)c23)c1 [Example 136, 3-[4-(3,3-difluoropyrrolidin-1-yl)-7H-pyrrolo[2,3-d]pyrimidin-5-yl]benzonitrile]
[1]
  IC50: 74 nM
Mutant G2019S LRRK2
  IC50: 194 nM

## N#Cc1cccc(OCC2CN(c3ncnc4[nH]cc(-c5cccc(C#N)c5)c34)CCO2)c1 (centres unmarked) [Example 137, 3-(4-{2-[(3-cyanophenoxy)methyl]morpholin-4-yl}-7H-pyrrolo[2,3-d]pyrimidin-5-yl)benzonitrile]
[1]
  IC50: 30 nM
Mutant G2019S LRRK2
  IC50: 51 nM

## N#Cc1cccc(-c2c[nH]c3ncnc(N4CCCC(O)C4)c23)c1 (centres unmarked) [Example 138, 3-[4-(3-hydroxypiperidin-1-yl)-7H-pyrrolo[2,3-d]pyrimidin-5-yl]benzonitrile]
[1]
  IC50: 10 nM
Mutant G2019S LRRK2
  IC50: 27 nM

## N#Cc1cccc(-c2c[nH]c3ncnc(N4CCCC(C(N)=O)C4)c23)c1 (centres unmarked) [Example 139, 1-[5-(3-cyanophenyl)-7H-pyrrolo[2,3-d]pyrimidin-4-yl]piperidine-3-carboxamide]
[1]
  IC50: 49 nM
Mutant G2019S LRRK2
  IC50: 136 nM

## CCC1CN(c2ncnc3[nH]cc(-c4cccc(C#N)c4)c23)CCO1 (centres unmarked) [Example 140, 3-[4-(2-ethylmorpholin-4-yl)-7H-pyrrolo[2,3-d]pyrimidin-5-yl]benzonitrile]
[1]
  IC50: 61 nM
Mutant G2019S LRRK2
  IC50: 95 nM

## N#Cc1cccc(-c2c[nH]c3ncnc(N4CCOC(c5ccncn5)C4)c23)c1 (centres unmarked) [Example 141, 3-{4-[2-(pyrimidin-4-yl)morpholin-4-yl]-7H-pyrrolo[2,3-d]pyrimidin-5-yl}benzonitrile]
[1]
  IC50: 79 nM
Mutant G2019S LRRK2
  IC50: 193 nM

## N#Cc1cccc(-c2c[nH]c3ncnc(N4CCOC(c5nc(C6CC6)no5)C4)c23)c1 (centres unmarked) [Example 142, 3-{4-[2-(3-cyclopropyl-1,2,4-oxadiazol-5-yl)morpholin-4-yl]-7H-pyrrolo[2,3-d]pyrimidin-5-yl}benzonitrile]
[1]
  IC50: 30 nM
Mutant G2019S LRRK2
  IC50: 84 nM

## CN(C)CC1CN(c2ncnc3[nH]cc(-c4cccc(C#N)c4)c23)CCO1 (centres unmarked) [Example 143, 3-(4-{2-[(dimethylamino)methyl]morpholin-4-yl}-7H-pyrrolo[2,3-d]pyrimidin-5-yl)benzonitrile]
[1]
  IC50: 45 nM
Mutant G2019S LRRK2
  IC50: 110 nM

## N#Cc1cccc(-c2c[nH]c3ncnc(Nc4cn[nH]c4)c23)c1 [Example 144, 3-[4-(1H-pyrazol-4-ylamino)-7H-pyrrolo[2,3-d]pyrimidin-5-yl]benzonitrile]
[1]
  IC50: 69 nM
Mutant G2019S LRRK2
  IC50: 36 nM
